Values of other authors, collected in patent US20240315993A1, “ANTIPARASITIC COMPOUNDS” (Intervet Inc., priority 2021, published 2024).

Legend:
[1] = system: Beet Armyworm (Spodoptera exigua); conditions: Beet Armyworm second instar larvae, 128-well diet tray, 50 μg/cm^2, five to seven days, average of eight wells; cited from earlier work
[2] = system: Cabbage Looper (Trichoplusia ni); conditions: Cabbage Looper second instar larvae, 128-well diet tray, 50 μg/cm^2, five to seven days, average of eight wells; cited from earlier work
[3] = system: Yellow Fever Mosquito (Aedes aegypti); conditions: Aedes aegypti larvae about 1 day old, 96-well plate, scored after 3 days; cited from earlier work

Cn1ccc2cc(NC(=O)c3cc(NC(=O)C4C(c5cc(Cl)cc(Cl)c5)C4(Cl)Cl)ccc3Cl)ccc21 (stereo not drawn) [c36]
Test A: Bioassay on BAW, percent mortality rating [1]: A (50-100) | Test B: Bioassay on CL, percent mortality rating [2]: A (50-100) | Test C: Bioassay on Yellow Fever Mosquito, mortality rating [3]: A (80-100)

O=C(Nc1ccc2c(ccn2Cc2ccccc2)c1)c1cc(NC(=O)C2C(c3cc(Cl)cc(Cl)c3)C2(Cl)Cl)ccc1Cl (stereo not drawn) [c37]
Test A: Bioassay on BAW, percent mortality rating [1]: A (50-100) | Test B: Bioassay on CL, percent mortality rating [2]: A (50-100) | Test C: Bioassay on Yellow Fever Mosquito, mortality rating [3]: D (No activity noticed in this bioassay)

CN1C(=O)Cc2cc(NC(=O)c3cc(NC(=O)C4C(c5cc(Cl)cc(Cl)c5)C4(Cl)Cl)ccc3Cl)ccc21 (stereo not drawn) [c38]
Test A: Bioassay on BAW, percent mortality rating [1]: A (50-100) | Test B: Bioassay on CL, percent mortality rating [2]: A (50-100) | Test C: Bioassay on Yellow Fever Mosquito, mortality rating [3]: A (80-100)

Cn1nc(NC(=O)c2cc(NC(=O)C3C(c4cc(Cl)cc(Cl)c4)C3(Cl)Cl)ccc2Cl)c2cc(C(F)(F)F)ccc21 (stereo not drawn) [c39]
Test A: Bioassay on BAW, percent mortality rating [1]: A (50-100) | Test B: Bioassay on CL, percent mortality rating [2]: A (50-100) | Test C: Bioassay on Yellow Fever Mosquito, mortality rating [3]: A (80-100)

O=C(Nc1ccc(-c2nccs2)cc1)c1cc(NC(=O)C2C(c3cc(Cl)cc(Cl)c3)C2(Cl)Cl)ccc1Cl (stereo not drawn) [c41]
Test A: Bioassay on BAW, percent mortality rating [1]: A (50-100) | Test B: Bioassay on CL, percent mortality rating [2]: A (50-100) | Test C: Bioassay on Yellow Fever Mosquito, mortality rating [3]: A (80-100)

Cc1cc(N(C)C(=O)OC(C)(C)C)ccc1NC(=O)c1cc(NC(=O)C2C(c3ccc(F)c(Cl)c3)C2(Cl)Cl)ccc1Cl (stereo not drawn) [c42]
Test A: Bioassay on BAW, percent mortality rating [1]: A (50-100) | Test B: Bioassay on CL, percent mortality rating [2]: D (No activity noticed in this bioassay) | Test C: Bioassay on Yellow Fever Mosquito, mortality rating [3]: D (No activity noticed in this bioassay)

Cc1cc(N(C)C(=O)OC(C)(C)C)ccc1N(C)C(=O)c1cc(NC(=O)C2C(c3cc(Cl)cc(Cl)c3)C2(Cl)Cl)ccc1Cl (stereo not drawn) [c43]
Test A: Bioassay on BAW, percent mortality rating [1]: A (50-100) | Test B: Bioassay on CL, percent mortality rating [2]: A (50-100) | Test C: Bioassay on Yellow Fever Mosquito, mortality rating [3]: D (No activity noticed in this bioassay)

Cc1cc(N(C)C(=O)OC(C)(C)C)ccc1N(C)C(=O)c1cc(NC(=O)C2C(c3cc(Cl)c(Cl)c(Cl)c3)C2(Cl)Cl)ccc1Cl (stereo not drawn) [c44]
Test A: Bioassay on BAW, percent mortality rating [1]: A (50-100) | Test B: Bioassay on CL, percent mortality rating [2]: D (No activity noticed in this bioassay) | Test C: Bioassay on Yellow Fever Mosquito, mortality rating [3]: D (No activity noticed in this bioassay)

O=C(Nc1nc(-c2cccs2)cs1)c1cc(NC(=O)[C@H]2[C@H](c3cc(Cl)cc(Cl)c3)C2(Cl)Cl)ccc1Cl [c45]
Test A: Bioassay on BAW, percent mortality rating [1]: A (50-100) | Test B: Bioassay on CL, percent mortality rating [2]: A (50-100) | Test C: Bioassay on Yellow Fever Mosquito, mortality rating [3]: A (80-100)

O=C(Nc1ccc2[nH]c(C(F)(F)F)cc2c1)c1cc(NC(=O)C2C(c3cc(Cl)cc(Cl)c3)C2(Cl)Cl)ccc1Cl (stereo not drawn) [c46]
Test A: Bioassay on BAW, percent mortality rating [1]: A (50-100) | Test B: Bioassay on CL, percent mortality rating [2]: A (50-100) | Test C: Bioassay on Yellow Fever Mosquito, mortality rating [3]: D (No activity noticed in this bioassay)

CNc1ccc(NC(=O)c2cc(NC(=O)C3C(c4cc(Cl)c(Cl)c(Cl)c4)C3(Cl)Cl)ccc2Cl)c(C)c1 (stereo not drawn) [c47]
Test A: Bioassay on BAW, percent mortality rating [1]: A (50-100) | Test B: Bioassay on CL, percent mortality rating [2]: A (50-100) | Test C: Bioassay on Yellow Fever Mosquito, mortality rating [3]: A (80-100)

CNc1ccc(N(C)C(=O)c2cc(NC(=O)C3C(c4cc(Cl)cc(Cl)c4)C3(Cl)Cl)ccc2Cl)c(C)c1 (stereo not drawn) [c48]
Test A: Bioassay on BAW, percent mortality rating [1]: A (50-100) | Test B: Bioassay on CL, percent mortality rating [2]: A (50-100) | Test C: Bioassay on Yellow Fever Mosquito, mortality rating [3]: D (No activity noticed in this bioassay)

CNc1ccc(N(C)C(=O)c2cc(NC(=O)C3C(c4cc(Cl)c(Cl)c(Cl)c4)C3(Cl)Cl)ccc2Cl)c(C)c1 (stereo not drawn) [c49]
Test A: Bioassay on BAW, percent mortality rating [1]: A (50-100) | Test B: Bioassay on CL, percent mortality rating [2]: A (50-100) | Test C: Bioassay on Yellow Fever Mosquito, mortality rating [3]: A (80-100)

N#Cc1cc([N+](=O)[O-])ccc1NC(=O)c1cc(NC(=O)C2C(c3cc(Cl)cc(Cl)c3)C2(Cl)Cl)ccc1Cl (stereo not drawn) [c51]
Test A: Bioassay on BAW, percent mortality rating [1]: A (50-100) | Test B: Bioassay on CL, percent mortality rating [2]: A (50-100) | Test C: Bioassay on Yellow Fever Mosquito, mortality rating [3]: A (80-100)

Cc1ccc(NC(=O)c2cc(NC(=O)C3C(c4cc(Cl)cc(Cl)c4)C3(Cl)Cl)ccc2Cl)c([N+](=O)[O-])c1 (stereo not drawn) [c52]
Test A: Bioassay on BAW, percent mortality rating [1]: A (50-100) | Test B: Bioassay on CL, percent mortality rating [2]: A (50-100) | Test C: Bioassay on Yellow Fever Mosquito, mortality rating [3]: A (80-100)

N#Cc1cc(C(F)(F)F)ccc1NC(=O)c1cc(NC(=O)C2C(c3cc(Cl)cc(Cl)c3)C2(Cl)Cl)ccc1Cl (stereo not drawn) [c53]
Test A: Bioassay on BAW, percent mortality rating [1]: A (50-100) | Test B: Bioassay on CL, percent mortality rating [2]: A (50-100) | Test C: Bioassay on Yellow Fever Mosquito, mortality rating [3]: A (80-100)

N#Cc1ccc(NC(=O)c2cc(NC(=O)C3C(c4cc(Cl)cc(Cl)c4)C3(Cl)Cl)ccc2Cl)cc1C(F)(F)F (stereo not drawn) [c54]
Test A: Bioassay on BAW, percent mortality rating [1]: A (50-100) | Test B: Bioassay on CL, percent mortality rating [2]: A (50-100) | Test C: Bioassay on Yellow Fever Mosquito, mortality rating [3]: A (80-100)
